Test system: β-catenin-TCF-mediated reporter transcription activity in Colo 205 cells
Experiment: Colo 205 reporter assay (TCF/LEF luciferase)
Assay type: cell-based
Settings: Homo sapiens, COLO 205, 5 h, Colo 205 TCF/LEF luciferase reporter, five hours after addition of compound; read-out: TCF reporter Colo205 IC50
In short: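 Luciferase signal from a TCF/LEF-driven reporter, stably integrated in Colo 205 colon cancer cells, was measured 5 h after compound addition.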

IC50 [nM]	SMILES
≥ 5000	Cc1nc(NC2CN(C(=O)C3CCCCO3)C2)nc2c1NC(=O)[C@H](C(C)C)N2C (stereo partly drawn) [Compound 611, (7S)-7-isopropyl-4,8-dimethyl-2-((1-(tetrahydro-2H-pyran-2-carbonyl)azetidin-3-yl)amino)-7,8-dihydropteridin-6(5H)-one]
< 300	Cc1nc(NC2CN(C(=O)COc3ccccc3C(F)(F)F)C2)nc2c1NC(=O)[C@H](C(C)C)N2C [Compound 612, (S)-7-isopropyl-4,8-dimethyl-2-((1-(2-(2-(trifluoromethyl)phenoxy)acetyl)azetidin-3-yl)amino)-7,8-dihydropteridin-6(5H)-one]
300 to 1000	Cc1nc(NC2CN(C(=O)c3csc(C(F)(F)F)n3)C2)nc2c1NC(=O)[C@H](C(C)C)N2C [Compound 613, (S)-7-isopropyl-4,8-dimethyl-2-((1-(2-(trifluoromethyl)thiazole-4-carbonyl)azetidin-3-yl)amino)-7,8-dihydropteridin-6(5H)-one]
1000 to 5000	Cc1nc(NC2CN(C(=O)c3ccn(C(F)F)n3)C2)nc2c1NC(=O)[C@H](C(C)C)N2C [Compound 614, (S)-2-((1-(1-(difluoromethyl)-1H-pyrazole-3-carbonyl)azetidin-3-yl)amino)-7-isopropyl-4,8-dimethyl-7,8-dihydropteridin-6(5H)-one]
300 to 1000	Cc1nc(NC2CN(C(=O)c3ccc(OCC(F)(F)F)nc3)C2)nc2c1NC(=O)[C@H](C(C)C)N2C [Compound 615, (S)-7-isopropyl-4,8-dimethyl-2-((1-(6-(2,2,2-trifluoroethoxy)nicotinoyl)azetidin-3-yl)amino)-7,8-dihydropteridin-6(5H)-one]
300 to 1000	Cc1nc(NC2CN(C(=O)Cc3ccc(F)cc3F)C2)nc2c1NC(=O)[C@H](C(C)C)N2C [Compound 616, (S)-2-((1-(2-(2,4-difluorophenyl)acetyl)azetidin-3-yl)amino)-7-isopropyl-4,8-dimethyl-7,8-dihydropteridin-6(5H)-one]
≥ 5000	Cc1nc(NC2CN(C(=O)c3cnon3)C2)nc2c1NC(=O)[C@H](C(C)C)N2C [Compound 617, (S)-2-((1-(1,2,5-oxadiazole-3-carbonyl)azetidin-3-yl)amino)-7-isopropyl-4,8-dimethyl-7,8-dihydropteridin-6(5H)-one]
300 to 1000	Cc1nc(NC2CN(C(=O)Cc3ccc(F)cc3)C2)nc2c1NC(=O)[C@H](C(C)C)N2C [Compound 618, (S)-2-((1-(2-(4-fluorophenyl)acetyl)azetidin-3-yl)amino)-7-isopropyl-4,8-dimethyl-7,8-dihydropteridin-6(5H)-one]
1000 to 5000	Cc1nc(NC2CN(C(=O)c3cc(C(C)C)on3)C2)nc2c1NC(=O)[C@H](C(C)C)N2C [Compound 619, (S)-7-isopropyl-2-((1-(5-isopropylisoxazole-3-carbonyl)azetidin-3-yl)amino)-4,8-dimethyl-7,8-dihydropteridin-6(5H)-one]
≥ 5000	Cc1cc(C(=O)N2CC(Nc3nc(C)c4c(n3)N(C)[C@@H](C(C)C)C(=O)N4)C2)on1 [Compound 620, (S)-7-isopropyl-4,8-dimethyl-2-((1-(3-methylisoxazole-5-carbonyl)azetidin-3-yl)amino)-7,8-dihydropteridin-6(5H)-one]
300 to 1000	Cc1nc(NC2CN(C(=O)c3ccc(C(F)(F)F)o3)C2)nc2c1NC(=O)[C@H](C(C)C)N2C [Compound 621, (S)-7-isopropyl-4,8-dimethyl-2-((1-(5-(trifluoromethyl)furan-2-carbonyl)azetidin-3-yl)amino)-7,8-dihydropteridin-6(5H)-one]
< 300	Cc1nc(NC2CN(C(=O)c3ccc(C(F)(F)F)cc3)C2)nc2c1NC(=O)[C@H](C(C)C)N2C [Compound 622, (S)-7-isopropyl-4,8-dimethyl-2-((1-(4-(trifluoromethyl)benzoyl)azetidin-3-yl)amino)-7,8-dihydropteridin-6(5H)-one]
300 to 1000	Cc1nc(NC2CN(C(=O)CC3CC4CCC3C4)C2)nc2c1NC(=O)[C@H](C(C)C)N2C (stereo partly drawn) [Compound 623, (7S)-2-((1-(2-(bicyclo[2.2.1]heptan-2-yl)acetyl)azetidin-3-yl)amino)-7-isopropyl-4,8-dimethyl-7,8-dihydropteridin-6(5H)-one]
≥ 5000	Cc1nc(N[C@H]2CCc3c2cnn3Cc2ccc(C(F)(F)F)nc2)nc2c1NC(=O)[C@H](C)N2C [Compound 624, (7S)-4,7,8-trimethyl-2-(((S)-1-((6-(trifluoromethyl)pyridin-3-yl)methyl)-1,4,5,6-tetrahydrocyclopenta[c]pyrazol-4-yl)amino)-7,8-dihydropteridin-6(5H)-one]
≥ 5000	Cc1nc(N[C@@H]2CCc3c2cnn3Cc2ccc(C(F)(F)F)nc2)nc2c1NC(=O)[C@H](C)N2C [Compound 625, (7S)-4,7,8-trimethyl-2-(((R)-1-((6-(trifluoromethyl)pyridin-3-yl)methyl)-1,4,5,6-tetrahydrocyclopenta[c]pyrazol-4-yl)amino)-7,8-dihydropteridin-6(5H)-one]
< 300	Cc1nc(NC2CN(C(=O)Cc3ccc(F)c(F)c3)C2)nc2c1NC(=O)[C@H](C(C)C)N2C [Compound 626, (S)-2-((1-(2-(3,4-difluorophenyl)acetyl)azetidin-3-yl)amino)-7-isopropyl-4,8-dimethyl-7,8-dihydropteridin-6(5H)-one]

IC50 [nM]	SMILES
1000 to 5000	Cc1nc(NC2CN(C(=O)[C@H](C)c3ccccc3)C2)nc2c1NC(=O)[C@H](C(C)C)N2C [Compound 627, (S)-7-isopropyl-4,8-dimethyl-2-((1-((R)-2-phenylpropanoyl)azetidin-3-yl)amino)-7,8-dihydropteridin-6(5H)-one]
≥ 5000	Cc1nc(CC(=O)N2CC(Nc3nc(C)c4c(n3)N(C)[C@@H](C(C)C)C(=O)N4)C2)c(C)s1 [Compound 628, (S)-2-((1-(2-(2,5-dimethylthiazol-4-yl)acetyl)azetidin-3-yl)amino)-7-isopropyl-4,8-dimethyl-7,8-dihydropteridin-6(5H)-one]
< 300	Cc1nc(NC2CN(C(=O)Cc3cc(F)cc(F)c3)C2)nc2c1NC(=O)[C@H](C(C)C)N2C [Compound 629, (S)-2-((1-(2-(3,5-difluorophenyl)acetyl)azetidin-3-yl)amino)-7-isopropyl-4,8-dimethyl-7,8-dihydropteridin-6(5H)-one]
1000 to 5000	Cc1nc(NC2CN(C(=O)c3csc(Cl)n3)C2)nc2c1NC(=O)[C@H](C(C)C)N2C [Compound 630, (S)-2-((1-(2-chlorothiazole-4-carbonyl)azetidin-3-yl)amino)-7-isopropyl-4,8-dimethyl-7,8-dihydropteridin-6(5H)-one]
≥ 5000	Cc1nc(NC2CN(C(=O)c3cnccn3)C2)nc2c1NC(=O)[C@H](C(C)C)N2C [Compound 631, (S)-7-isopropyl-4,8-dimethyl-2-((1-(pyrazine-2-carbonyl)azetidin-3-yl)amino)-7,8-dihydropteridin-6(5H)-one]
300 to 1000	Cc1nc(NC2CN(C(=O)Cc3cccc(F)c3F)C2)nc2c1NC(=O)[C@H](C(C)C)N2C [Compound 632, (S)-2-((1-(2-(2,3-difluorophenyl)acetyl)azetidin-3-yl)amino)-7-isopropyl-4,8-dimethyl-7,8-dihydropteridin-6(5H)-one]
1000 to 5000	Cc1nc(NC2CN(C(=O)c3cnc(Cl)s3)C2)nc2c1NC(=O)[C@H](C(C)C)N2C [Compound 633, (S)-2-((1-(2-chlorothiazole-5-carbonyl)azetidin-3-yl)amino)-7-isopropyl-4,8-dimethyl-7,8-dihydropteridin-6(5H)-one]
≥ 5000	CO[C@@H](C(=O)N1CC(Nc2nc(C)c3c(n2)N(C)[C@@H](C(C)C)C(=O)N3)C1)c1ccccc1 [Compound 634, (S)-7-isopropyl-2-((1-((R)-2-methoxy-2-phenylacetyl)azetidin-3-yl)amino)-4,8-dimethyl-7,8-dihydropteridin-6(5H)-one]
< 300	Cc1nc(NC2CN(C(=O)c3cccc(C(F)(F)F)c3)C2)nc2c1NC(=O)[C@H](C(C)C)N2C [Compound 635, (S)-7-isopropyl-4,8-dimethyl-2-((1-(3-(trifluoromethyl)benzoyl)azetidin-3-yl)amino)-7,8-dihydropteridin-6(5H)-one]
≥ 5000	Cc1nc(NC2CN(C(=O)[C@H]3CCCO3)C2)nc2c1NC(=O)[C@H](C(C)C)N2C [Compound 636, (S)-7-isopropyl-4,8-dimethyl-2-((1-((R)-tetrahydrofuran-2-carbonyl)azetidin-3-yl)amino)-7,8-dihydropteridin-6(5H)-one]
≥ 5000	Cc1nc(NC2CN(C(=O)C3CCC(C)O3)C2)nc2c1NC(=O)[C@H](C(C)C)N2C (stereo partly drawn) [Compound 637, (7S)-7-isopropyl-4,8-dimethyl-2-((1-(5-methyltetrahydrofuran-2-carbonyl)azetidin-3-yl)amino)-7,8-dihydropteridin-6(5H)-one]
≥ 5000	Cc1nc(NC2CN(C(=O)C3(C)CCCO3)C2)nc2c1NC(=O)[C@H](C(C)C)N2C (stereo partly drawn) [Compound 638, (7S)-7-isopropyl-4,8-dimethyl-2-((1-(2-methyltetrahydrofuran-2-carbonyl)azetidin-3-yl)amino)-7,8-dihydropteridin-6(5H)-one]
1000 to 5000	Cc1nc(NC2CN(C(=O)C3CC4CCC3C4)C2)nc2c1NC(=O)[C@H](C(C)C)N2C (stereo partly drawn) [Compound 639, (7S)-2-((1-(bicyclo[2.2.1]heptane-2-carbonyl)azetidin-3-yl)amino)-7-isopropyl-4,8-dimethyl-7,8-dihydropteridin-6(5H)-one]
≥ 5000	Cc1nc(NC2CN(C(=O)c3ncccn3)C2)nc2c1NC(=O)[C@H](C(C)C)N2C [Compound 640, (S)-7-isopropyl-4,8-dimethyl-2-((1-(pyrimidine-2-carbonyl)azetidin-3-yl)amino)-7,8-dihydropteridin-6(5H)-one]
≥ 5000	Cc1nc(NC2CN(C(=O)[C@@H](C)c3ccccc3)C2)nc2c1NC(=O)[C@H](C(C)C)N2C [Compound 641, (S)-7-isopropyl-4,8-dimethyl-2-((1-((S)-2-phenylpropanoyl)azetidin-3-yl)amino)-7,8-dihydropteridin-6(5H)-one]
